Measured values taken from PMC7246999 (International Journal of Molecular Sciences, 2020).

T1: hMPC-2 (Homo sapiens, UniProt O95563)
T1 construct: HA tag (hemagglutinin, […]) (N, cleaved yes); 10x His tag (N, cleaved yes); made in house; host or cells: Sf9 (Spodoptera frugiperda), baculovirus
T1 sequence (O95563 1-127): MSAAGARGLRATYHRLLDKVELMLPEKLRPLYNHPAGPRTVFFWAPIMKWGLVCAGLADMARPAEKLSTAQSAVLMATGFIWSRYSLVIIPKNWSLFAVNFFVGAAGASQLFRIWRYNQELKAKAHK

T2: hMPC-1 (Homo sapiens, UniProt Q9Y5U8)
T2 construct: HA tag (hemagglutinin, […]) (N); made in house; host or cells: Sf9 (Spodoptera frugiperda), baculovirus
T2 sequence (Q9Y5U8 1-109): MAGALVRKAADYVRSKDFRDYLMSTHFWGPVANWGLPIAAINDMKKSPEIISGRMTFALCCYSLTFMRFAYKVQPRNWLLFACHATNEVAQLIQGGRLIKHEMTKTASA

T3: hMPC-1/hMPC-2 (Homo sapiens, UniProt O95563+Q9Y5U8)
T3 construct: HA tag (hemagglutinin, […]) (N); HA tag (hemagglutinin, […]) (N, cleaved yes); 10x His tag (N, cleaved yes); made in house; host or cells: Sf9 (Spodoptera frugiperda), baculovirus; proteins purified singly, mixed 1:1, then FLAG-resin
T3 sequence (Q9Y5U8 1-109): T2 sequence (Q9Y5U8 1-109)
T3 sequence (O95563 1-127): T1 sequence (O95563 1-127)

B1: human mitochondrial pyruvate carrier 1 (hMPC-1), C-terminally tagged (natural protein, UniProt Q9Y5U8 1-109, looked up)
chain: T2 sequence (Q9Y5U8 1-109)
notes: human mitochondrial pyruvate carrier 1 (hMPC-1); Printed mass of His-hMPC-1: 15.9 kDa; also called His-hMPC-1; human MPC-1; source: Sf9 (baculovirus), purified in DDM (TALON IMAC, gel filtration); also co-expressed with hMPC-2 in Sf9 by co-infection; not shown: FLAG, C-terminal, kept; 10x His, C-terminal, kept

What was measured:
[1] = target: T1, hMPC-2; assay: Fluorescence quenching binding assay, purified hMPC-2 homo-complex; conditions: hMPC-2 in DDM micelles, room temperature, fluorescence at 338 nm, n = 3; read-out: Dissociation constant (Kd)
Description: (§1) In vitro fluorescence quenching was performed to measure the binding affinity of the purified hMPCs to their ligands, such as the pyruvate substrate and inhibitors, to validate their function (Figure 4). First, the equilibrium dissociation constants (Kd) of the hMPCs to pyruvate substrates were measured (Figure 4A,D).
(§2) A fluorescence analysis was performed using a LS55 spectrofluorophotometer at room temperature (Perkin Elmer, Waltham, MA, USA). The protein sample was prepared in buffer containing 50 mM Tris-HCl, 300 mM NaCl, and 0.05% DDM with a final concentration of 0.07 mg/ mL. […] Pyruvate was titrated to hMPC-1, hMPC-2, and hMPC-1/hMPC-2 up to 200mM concentrations. In the case of […], it was titrated to hMPC-1, hMPC-2, and hMPC-1/hMPC-2 up to 300uM, 200uM, 200uM concentrations, respectively. Pioglitazone was titrated to hMPC-1, hMPC-2, and hMPC-1/hMPC-2 up to 400uM, 500uM, and 400uM concentrations, respectively. All data were collected in the wavelength range of 270–450 nm (shown from 300 nm to 450 nm only) with a 1-min delay for each titration point. The dissociation constants were calculated by the maximum intensities in the 338 nm wavelength of each spectrum.

[2] = target: T2, hMPC-1; assay: Fluorescence quenching binding assay, purified hMPC-1 homo-complex; conditions: hMPC-1 in DDM micelles, room temperature, fluorescence at 338 nm, n = 3; read-out: Dissociation constant (Kd)
Description: as §1, §2

[3] = target: T3, hMPC-1/hMPC-2; assay: Fluorescence quenching binding assay, purified hMPC-1/hMPC-2 hetero-complex; conditions: for Kd: hMPC-1/hMPC-2 in DDM micelles, room temperature, fluorescence at 338 nm, n = 3, read-out: Dissociation constant (Kd)
Description: as §1, §2

[4] = target: the molecule itself; assay: SEC; analytical SEC, HiLoad 16/600 Superdex 200 pg, 50 mM Tris-HCl (pH 7), 300 mM NaCl, 0.05% (w/v) DDM, 1 mL/min; proteins run alone or mixed 1:1 (mass ratio) at room temperature for 1 h; fractions on SDS-PAGE

Row | Molecule | Kd [1] | Kd [2] | Kd [3] | Binding affinity of hetero-complex relative to homo-complex ([3]; hMPC-1/hMPC-2 hetero-complex higher than homo-complex) | binding result [4]
1 | CCc1ccc(CCOc2ccc(CC3SC(=O)NC3=O)cc2)nc1 (centres unmarked) [Pioglitazone] | 0.0993 ± 0.0145 mM | 0.0841 ± 0.0103 mM | 0.0603 ± 0.00611 mM |  | 
2 | CC(=O)C(=O)O [Pyruvate] | 12.9 ± 0.9 mM | 12 ± 0.77 mM | 8.91 ± 1.09 mM | 1.5 fold | 
3 | B1 |  |  |  |  | binds
